Results as given in ChEMBL document CHEMBL4265936, “Pyrazolo[4,3-b]pyrimido[4,5-e][1,4]diazepine derivatives as new multi-targeted inhibitors of Aurora A/B and KDR” (Eur J Med Chem, 2018).

How the values were obtained:
[1] = biological target: Receptor tyrosine-protein kinase erbB-2 (Homo sapiens) (UniProt P04626); experiment: Inhibition of recombinant human Erbb2 at 1000 nM after 60 mins by ELISA relative to control
Aurora kinase A = biological target: T1, Aurora kinase A (Homo sapiens, UniProt O14965); experiment: Inhibition of Aurora A (unknown origin) using STK S2 as substrate after 40 mins by HTRF assay
T1 sequence (O14965 whole entry): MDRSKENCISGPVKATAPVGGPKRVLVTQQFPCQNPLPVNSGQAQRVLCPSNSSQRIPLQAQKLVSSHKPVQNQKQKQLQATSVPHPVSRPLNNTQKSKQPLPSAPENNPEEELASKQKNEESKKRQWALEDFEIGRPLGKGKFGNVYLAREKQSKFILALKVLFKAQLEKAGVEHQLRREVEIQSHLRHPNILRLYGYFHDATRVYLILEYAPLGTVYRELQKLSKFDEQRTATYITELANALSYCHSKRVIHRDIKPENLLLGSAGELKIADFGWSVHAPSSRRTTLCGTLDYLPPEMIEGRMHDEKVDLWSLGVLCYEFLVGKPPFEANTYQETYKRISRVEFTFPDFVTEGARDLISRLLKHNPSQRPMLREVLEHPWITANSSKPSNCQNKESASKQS

Aurora kinase B = Aurora kinase B (Homo sapiens, UniProt Q96GD4); experiment: Inhibition of Aurora B (unknown origin) using STK S2 as substrate after 30 mins by HTRF assay
[2] = biological target: Vascular endothelial growth factor receptor 2 (Homo sapiens, UniProt P35968); experiment: biochemical; type: cell-based, Sf21
Description: Inhibition of recombinant human N-terminal His6-tagged KDR (790 to end residues) expressed in baculovirus infected Sf21 insect cells after 60 mins by ELISA

SNU-5 = experiment: Antitumor activity against human SNU5 cells xenografted in nude mouse assessed as delay in tumor tumor growth at 30 mg/kg, po qd for 21 days relative to control; type: functional
Mus musculus [3] = experiment: Toxicity in nude mouse xenografted with human SNU5 cells assessed as mortality at 30 mg/kg, po qd for 21 days; type: organism-based; details: in vivo, 504 h
Mus musculus [4] = experiment: Toxicity in nude mouse xenografted with human SNU5 cells assessed as body weight at 30 mg/kg, po qd for 21 days (reference value: 19.6 g); type: organism-based; details: in vivo, 504 h
[5] = biological target: Platelet-derived growth factor receptor beta (Homo sapiens) (UniProt P09619); experiment: Inhibition of recombinant human PDGFRbeta at 1000 nM after 60 mins by ELISA relative to control
[6] = biological target: Proto-oncogene tyrosine-protein kinase receptor Ret (Homo sapiens) (UniProt P07949); experiment: Inhibition of recombinant human RET at 1000 nM after 60 mins by ELISA relative to control

Aurora kinase B, sequence (Q96GD4 whole entry): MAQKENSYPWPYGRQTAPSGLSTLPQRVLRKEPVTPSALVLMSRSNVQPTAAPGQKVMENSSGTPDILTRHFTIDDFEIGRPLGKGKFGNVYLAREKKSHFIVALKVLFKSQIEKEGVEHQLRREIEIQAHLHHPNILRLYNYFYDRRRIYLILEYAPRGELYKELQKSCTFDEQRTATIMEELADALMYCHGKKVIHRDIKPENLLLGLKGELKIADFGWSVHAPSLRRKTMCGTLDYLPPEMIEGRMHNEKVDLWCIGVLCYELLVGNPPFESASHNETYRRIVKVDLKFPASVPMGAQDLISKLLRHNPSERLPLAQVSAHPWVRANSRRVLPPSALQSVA
Vascular endothelial growth factor receptor 2, sequence (P35968 whole entry): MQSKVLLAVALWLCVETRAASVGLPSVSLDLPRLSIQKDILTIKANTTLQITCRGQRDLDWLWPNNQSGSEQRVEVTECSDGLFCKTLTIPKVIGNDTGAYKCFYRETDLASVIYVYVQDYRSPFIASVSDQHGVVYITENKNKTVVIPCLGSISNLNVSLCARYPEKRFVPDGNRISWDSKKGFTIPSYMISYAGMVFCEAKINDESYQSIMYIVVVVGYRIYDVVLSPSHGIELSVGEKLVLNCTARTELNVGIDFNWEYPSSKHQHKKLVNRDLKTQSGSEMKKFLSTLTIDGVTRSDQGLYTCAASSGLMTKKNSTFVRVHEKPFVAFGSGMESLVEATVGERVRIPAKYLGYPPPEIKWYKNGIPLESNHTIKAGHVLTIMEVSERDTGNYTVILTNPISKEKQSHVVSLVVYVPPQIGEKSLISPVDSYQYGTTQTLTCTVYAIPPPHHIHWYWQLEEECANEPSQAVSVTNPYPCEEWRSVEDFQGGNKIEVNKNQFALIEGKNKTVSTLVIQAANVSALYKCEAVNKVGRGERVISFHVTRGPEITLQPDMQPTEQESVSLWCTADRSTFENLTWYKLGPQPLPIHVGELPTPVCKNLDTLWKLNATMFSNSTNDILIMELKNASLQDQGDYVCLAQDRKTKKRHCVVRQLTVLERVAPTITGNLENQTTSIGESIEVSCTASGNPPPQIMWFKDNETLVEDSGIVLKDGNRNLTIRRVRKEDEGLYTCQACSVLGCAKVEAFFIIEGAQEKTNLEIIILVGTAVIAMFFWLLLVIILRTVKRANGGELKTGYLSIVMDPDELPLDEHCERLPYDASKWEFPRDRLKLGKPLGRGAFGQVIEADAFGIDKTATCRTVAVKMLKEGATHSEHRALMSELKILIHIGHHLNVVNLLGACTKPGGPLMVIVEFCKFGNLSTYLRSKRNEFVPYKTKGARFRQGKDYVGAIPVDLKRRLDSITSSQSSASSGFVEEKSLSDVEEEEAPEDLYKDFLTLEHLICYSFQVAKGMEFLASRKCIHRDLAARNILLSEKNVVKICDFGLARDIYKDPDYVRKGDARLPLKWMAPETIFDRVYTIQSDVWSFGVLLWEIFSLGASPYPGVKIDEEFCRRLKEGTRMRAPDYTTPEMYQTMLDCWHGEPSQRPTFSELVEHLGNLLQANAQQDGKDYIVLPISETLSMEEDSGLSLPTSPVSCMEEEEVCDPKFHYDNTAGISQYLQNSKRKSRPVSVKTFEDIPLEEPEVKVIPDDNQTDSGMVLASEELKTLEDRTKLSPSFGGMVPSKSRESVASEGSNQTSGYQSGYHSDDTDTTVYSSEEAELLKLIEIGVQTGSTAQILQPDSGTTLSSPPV
Receptor tyrosine-protein kinase erbB-2 (Homo sapiens), sequence (P04626 whole entry): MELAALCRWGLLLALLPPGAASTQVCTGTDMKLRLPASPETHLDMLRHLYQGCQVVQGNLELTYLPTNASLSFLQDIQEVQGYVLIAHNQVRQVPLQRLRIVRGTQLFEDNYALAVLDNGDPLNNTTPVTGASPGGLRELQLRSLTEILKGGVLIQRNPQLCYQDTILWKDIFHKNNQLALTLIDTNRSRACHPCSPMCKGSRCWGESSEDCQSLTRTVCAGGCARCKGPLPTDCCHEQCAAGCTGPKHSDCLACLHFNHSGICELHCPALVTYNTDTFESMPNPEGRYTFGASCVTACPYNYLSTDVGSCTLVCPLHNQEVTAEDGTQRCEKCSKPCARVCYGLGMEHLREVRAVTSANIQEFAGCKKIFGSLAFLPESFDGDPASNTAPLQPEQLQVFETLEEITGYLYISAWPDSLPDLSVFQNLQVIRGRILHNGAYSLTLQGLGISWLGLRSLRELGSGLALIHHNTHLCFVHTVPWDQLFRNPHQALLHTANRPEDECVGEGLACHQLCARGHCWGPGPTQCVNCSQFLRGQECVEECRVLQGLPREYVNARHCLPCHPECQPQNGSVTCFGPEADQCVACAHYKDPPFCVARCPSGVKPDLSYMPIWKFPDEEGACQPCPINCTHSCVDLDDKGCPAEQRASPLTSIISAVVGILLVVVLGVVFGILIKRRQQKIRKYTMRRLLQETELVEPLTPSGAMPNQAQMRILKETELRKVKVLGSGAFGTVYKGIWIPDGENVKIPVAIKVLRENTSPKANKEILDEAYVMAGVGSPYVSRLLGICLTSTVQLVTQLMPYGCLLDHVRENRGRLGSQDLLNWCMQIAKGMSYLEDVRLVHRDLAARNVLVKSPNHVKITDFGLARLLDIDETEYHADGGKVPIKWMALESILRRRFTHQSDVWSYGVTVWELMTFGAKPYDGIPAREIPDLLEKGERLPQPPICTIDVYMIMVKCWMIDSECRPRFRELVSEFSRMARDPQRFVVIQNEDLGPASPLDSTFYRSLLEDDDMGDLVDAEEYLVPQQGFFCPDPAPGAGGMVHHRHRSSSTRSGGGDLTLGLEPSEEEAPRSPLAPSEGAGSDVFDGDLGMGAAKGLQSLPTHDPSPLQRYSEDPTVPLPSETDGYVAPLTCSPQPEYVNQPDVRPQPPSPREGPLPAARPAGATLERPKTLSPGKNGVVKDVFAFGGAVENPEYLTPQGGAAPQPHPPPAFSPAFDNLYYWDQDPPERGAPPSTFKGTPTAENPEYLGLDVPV
Platelet-derived growth factor receptor beta (Homo sapiens), sequence (P09619 whole entry): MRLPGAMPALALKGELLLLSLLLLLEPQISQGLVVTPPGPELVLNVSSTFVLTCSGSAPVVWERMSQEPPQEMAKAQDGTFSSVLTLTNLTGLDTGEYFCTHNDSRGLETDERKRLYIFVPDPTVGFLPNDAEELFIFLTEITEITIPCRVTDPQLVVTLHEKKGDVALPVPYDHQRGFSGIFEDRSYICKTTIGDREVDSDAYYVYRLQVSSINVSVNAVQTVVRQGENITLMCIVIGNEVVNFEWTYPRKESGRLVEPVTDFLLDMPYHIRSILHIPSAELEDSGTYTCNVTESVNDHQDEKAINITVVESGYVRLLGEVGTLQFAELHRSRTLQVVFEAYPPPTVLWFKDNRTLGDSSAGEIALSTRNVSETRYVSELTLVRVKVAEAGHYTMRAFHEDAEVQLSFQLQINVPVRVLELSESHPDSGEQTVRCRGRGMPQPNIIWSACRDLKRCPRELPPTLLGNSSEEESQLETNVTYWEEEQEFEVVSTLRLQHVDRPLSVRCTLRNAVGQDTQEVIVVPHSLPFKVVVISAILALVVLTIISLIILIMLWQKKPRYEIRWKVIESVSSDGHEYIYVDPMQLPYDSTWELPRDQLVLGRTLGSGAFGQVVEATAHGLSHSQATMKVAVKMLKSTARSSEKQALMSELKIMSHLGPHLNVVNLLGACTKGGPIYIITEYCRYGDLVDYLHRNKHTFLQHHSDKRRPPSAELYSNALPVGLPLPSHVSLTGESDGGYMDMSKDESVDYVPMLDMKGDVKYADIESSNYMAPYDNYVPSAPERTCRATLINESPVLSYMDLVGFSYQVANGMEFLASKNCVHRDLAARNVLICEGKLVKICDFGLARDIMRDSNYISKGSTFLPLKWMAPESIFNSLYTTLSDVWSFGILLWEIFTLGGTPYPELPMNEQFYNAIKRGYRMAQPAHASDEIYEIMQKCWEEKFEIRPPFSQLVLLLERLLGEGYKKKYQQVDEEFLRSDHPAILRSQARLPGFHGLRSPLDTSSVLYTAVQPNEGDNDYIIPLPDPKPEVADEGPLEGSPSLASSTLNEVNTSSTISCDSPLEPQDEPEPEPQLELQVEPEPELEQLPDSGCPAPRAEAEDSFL

`CN(C)C/C=C/C(=O)Nc1cc2c(Nc3ccc(F)c(Cl)c3)ncnc2cc1O[C@H]1CCOC1` was tested, and the inhibition [1] was 97.6%.

In the case of `CCN(CC)c1ncc2c(n1)Nc1n[nH]c(C)c1N=C2c1ccc(C)cc1`, the IC50 (Aurora kinase A) is reported as 268 nM, the IC50 (Aurora kinase B) is reported as 322 nM and the IC50 [2] is reported as 8.3 nM.

For `CSc1ncc2c(n1)Nc1n[nH]c(C)c1N=C2c1ccc(C)cc1`, the IC50 (Aurora kinase A) was 70.6 nM, the IC50 (Aurora kinase B) was 99.8 nM and the IC50 [2] was 157 nM.

In the case of `COc1cc2nccc(Oc3ccc(NC(=O)C4(C(=O)Nc5ccc(F)cc5)CC4)cc3)c2cc1OC` [CABOZANTINIB], the T/C (SNU-5) is reported as 8.41%, the Activity (Mus musculus [3]) is reported as “Non-Toxic” and the Activity (Mus musculus [4]) is reported as 19.9 g.

`CNc1ncc2c(n1)Nc1n[nH]c(C)c1N=C2c1ccc(C)cc1` showed an IC50 (Aurora kinase A) of 397 nM, an IC50 (Aurora kinase B) of 352 nM and an IC50 [2] of 199 nM.

In the case of `CCN(CC)CCNC(=O)c1c(C)[nH]c(/C=C2\C(=O)Nc3ccc(F)cc32)c1C`, the inhibition [5] is reported as 75.7% and the inhibition [6] is reported as 76.7%.

`CSc1ncc2c(n1)Nc1n[nH]c(C)c1N=C2c1ccccc1Cl` gave an IC50 (Aurora kinase A) of 94 nM, an IC50 (Aurora kinase B) of 278 nM and an IC50 [2] of 83.7 nM.

`COc1ccc(C2=Nc3c(n[nH]c3C)Nc3nc(SC)ncc32)cc1` was tested, and the IC50 (Aurora kinase A) was 93 nM, the IC50 (Aurora kinase B) was 2680 nM and the IC50 [2] was 430 nM.

`Cc1ccc(C2=Nc3c(n[nH]c3C)Nc3nc(NC(C)(C)C)ncc32)cc1` gave an IC50 (Aurora kinase A) of 357 nM, an IC50 (Aurora kinase B) of 1180 nM and an IC50 [2] of 84.5 nM.

In the case of `Cc1ccc(C2=Nc3c(n[nH]c3C)Nc3nc(NC(C)C)ncc32)cc1`, the IC50 (Aurora kinase A) is reported as 63.1 nM, the IC50 (Aurora kinase B) is reported as 54.1 nM and the IC50 [2] is reported as 30.3 nM.

`CSc1ncc2c(n1)Nc1n[nH]c(C)c1N=C2c1ccccc1` was tested, and the IC50 (Aurora kinase A) was 193 nM, the IC50 (Aurora kinase B) was 894 nM and the IC50 [2] was 697 nM.
